Measured values taken from article PMC9415509, “Pro-Apoptotic Antitumoral Effect of Novel Acridine-Core Naphthoquinone Compounds against Oral Squamous Cell Carcinoma” (Molecules, 2022).

How the values were obtained:
SCC9 (OSCC cell) = assay: MTT cell viability assay (cytotoxicity), SCC9; format: cell-based, human; conditions: for IC50: Homo sapiens, SCC-9, SCC9, 48 h, MTT (Table 1), read-out: SCC9—Oral Cancer IC50; for SCC9 S.I.: IC50 normal oral fibroblasts / IC50 SCC9
Description: (§1) Cells and reagents. Human SCC-4, SCC-9, and SCC-25 cells, derived from a human oral tongue SCC (squamous cell carcinoma) were obtained from the ATCC (CRL-1624, CRL-1629, and CRL-1628, respectively) and maintained in 1:1 DMEM/F12 (Dulbecco’s modified Eagle medium and Ham’s F12 medium; Gibco (Thermo Fisher, Waltham, MA, USA)) supplemented with 10% (v/v) FBS (fetal bovine serum; Invitrogen, Thermo Fisher, Waltham, MA, USA) and 400 ng/mL hydrocortisone (Sigma-Aldrich Co., St. Louis, MO, USA). Primary normal human gingival fibroblasts were obtained from the ATCC (PCS-201-018) and maintained in DMEM supplemented with 10% (v/v) FBS and were used in a maximum of six passages. The cells were grown in a humidified environment containing 5% CO2 at 37 °C. […] Carboplatin stock was prepared in water (Fauldcarbo®; LibbsFarmacêutica, São Paulo, SP, Brazil) and was used as a standard anticancer compound.
(§2) Cell viability assay (cytotoxicity) and compound stability assay. The viability of SCC cell lines and primary human fibroblast cells was evaluated using the MTT assay as in [48]. Briefly, the cells were grown in triplicates in 96-well plates (5 × 10^3 cells/well) until confluence. Then, the medium was removed, fresh medium was added, and the cells were returned to the incubator in the presence of different compounds. DMSO at the same concentrations was used as a 100% cell viability control. After 48 h, the cells were incubated with 5 mg/mL MTT reagent (3-(4,5-dimethyl-2-thiazolyl)-2,5-diphenyl-2-H-tetrazolium bromide) (Sigma-Aldrich Co., St. Louis, MO, USA) for 3.5 h. After that, formazan crystals were dissolved in MTT solvent solution (DMSO/methanol 1:1 v/v) and the absorbance at 560 nm was evaluated using an EPOCH microplate spectrophotometer (BioTek Instruments, Winooski, VT, USA) with the background absorbance at 670 nm subtracted.
(§3) Statistical analysis, IC50 calculation. The data are presented as means ±\SD. IC50 values for the MTT assays were obtained by nonlinear regression using the […] 5.0 program (Intuitive Software for Science, San Diego, CA, USA) from at least three independent experiments. A dose–response (inhibitor) vs. response curve using the least squares method was used to determine the IC50, SD, and R^2 of the data. The selectivity index was calculated as SI = IC50 of the compound in normal oral fibroblast cells/IC50 of the same compound for each oral cancer cell line (SCC-4, SCC-9, and SCC-25) and the mean was calculated when indicated.

SCC25 OSCC cell line = assay: MTT cell viability assay (cytotoxicity), SCC25; format: cell-based, human; conditions: for IC50: Homo sapiens, SCC-25, SCC25, 48 h, MTT, read-out: Oral Tumor Cells SCC25 IC50; for SCC25 S.I.: IC50 normal oral fibroblasts / IC50 SCC25
Description: as §1, §2, §3

SCC4 OSCC cell line = assay: MTT cell viability assay (cytotoxicity), SCC4; format: cell-based, human; conditions: for IC50: Homo sapiens, SCC-4, SCC4, 48 h, MTT, read-out: Oral Tumor Cells SCC4 IC50; for SCC4 S.I.: IC50 normal oral fibroblasts / IC50 SCC4
Description: as §1, §2, §3

[1] = MTT cell viability assay, normal fibroblasts; format: cell-based, human; conditions: human, primary normal human gingival fibroblasts (ATCC PCS-201-018)
Description: as §1, §2, §3

[2] = tested on: Primary normal human gingival fibroblasts; assay: MTT cell viability assay, normal fibroblasts; format: cell-based; conditions: Homo sapiens, Fibroblast; primary gingival fibroblasts, 48 h, MTT; read-out: Primary Gingival Fibroblast IC50
Description: as §1, §2, §3

COc1ccc(C2C3=C(CC(C)(C)CC3=O)NC3=C2C(=O)c2ccccc2C3=O)c(OC)c1 (stereo not drawn) [4j, 12-(2,4-dimethoxyphenyl)-3,3-dimethyl-3,4-dihydrobenzo[b]acridine-1,6,11(2H,5H,12H)-trione]
IC50 (SCC9 (OSCC cell)): 4.1 µM
SCC9 S.I. (SCC9 (OSCC cell)): 5.7
IC50 (SCC25 OSCC cell line): 11.5 µM
SCC25 S.I. (SCC25 OSCC cell line): 2.0
IC50 (SCC4 OSCC cell line): 18.9 µM
SCC4 S.I. (SCC4 OSCC cell line): 1.2
viability at 48 h [1]: > 75%
IC50 [2]: 23.6 µM
melting point: 250 to 251 °C

COc1cc(C2C3=C(CC(C)(C)CC3=O)NC3=C2C(=O)c2ccccc2C3=O)cc(OC)c1OC (stereo not drawn) [4m, 12-(3,4,5-trimethoxyphenyl)-3,3-dimethyl-3,4-dihydrobenzo[b]acridine-1,6,11(2H,5H,12H)-trione]
IC50 (SCC9 (OSCC cell)): 2.06 µM
SCC9 S.I. (SCC9 (OSCC cell)): 3.8
IC50 (SCC25 OSCC cell line): 7.41 µM
SCC25 S.I. (SCC25 OSCC cell line): 1.1
IC50 (SCC4 OSCC cell line): 11 µM
SCC4 S.I. (SCC4 OSCC cell line): 0.7
viability at 48 h [1]: > 75%
IC50 [2]: 7.86 µM
melting point: 242 to 243 °C
